We go through four molecules from publication PMC10689700, “Kaemtakols A–D, highly oxidized pimarane diterpenoids with potent anti-inflammatory activity from Kaempferia takensis” (Natural Products and Bioprospecting, 2023).

The subject of one data set is NF-κB in HaCaT cells. Nature of the data set: Inhibition of cytokine-induced NF-κB nuclear translocation in HaCaT human skin cells (high-content imaging). It is filed as cell-based. The following applies: cytokine cocktail TNF-α, IL-1β, IL-6, read-out: EC50, HaCaT cell (NF-κB production by cytokine induced inflammation). As for the experimental part: Assessment of inhibitory effects on NF-κB nuclear translocation in human skin HaCaT cells
The assay followed the methods described previously with some modifications. Human skin cells (HaCaT cells) were seeded at 5 × 10^4 cells/well in a 96-well black flat-bottom plate, using DMEM (Dulbecco’s Modified Eagle Medium) high glucose supplemented with 10% FBS and 1% penicillin–streptomycin. The plates were then incubated at 37 °C for 24 h under 5% CO2 atmosphere. Following the initial incubation, a range of concentrations (100, 50, 25, 12.5, 6.25, 3.125 μM) of kaemtakols were introduced to the cells, and a subsequent 1-h incubation at 37 °C with 5% CO2 was carried out. Afterward, a cytokine cocktail comprising TNF-α (10 ng/mL), IL-1β (10 ng/mL), and IL-6 (10 ng/mL), along with the same concentration range of kaemtakols, was introduced to the culture plates and incubated at 37 °C with 5% CO2 for additional 30 min. Thereafter, the treated cells were fixed with 100% methanol at -20 °C for 10 min. The fixed cells underwent triple washes with DPBS before being exposed to a blocking solution (3% BSA) at room temperature for 60 min. Subsequently, a primary antibody (anti-NF-κB), a Rabbit monoclonal antibody, was introduced into the culture plate at a 1:500 ratio in DPBS and incubated at 4 °C overnight. Afterward, the culture plate was washed with DPBS three times. A secondary antibody (Alexa Fluor 488-conjugated goat anti-rabbit IgG) at a 1:500 ratio in DPBS was added to the culture plate and incubated for 1 h at room temperature in the dark. Simultaneously, Hoechst (at a 1:1,000 ratio in DPBS) was also added to the culture plate. The translocation of NF-κB in cells treated with the cytokine cocktail and kaemtakols was subsequently detected using a high-content imaging system (Operetta). The cell viability was determined by Hoechst DNA staining (Operetta).

The subject of data set [1] is NO production in RAW 264.7 macrophage cells. Nature of the data set: Inhibition of LPS-induced NO production in RAW 264.7 macrophage cells (Griess reaction). The data set is classed as cell-based, murine. The following applies: Mus musculus; for IC50: RAW264.7, LPS-triggered RAW 264.7 macrophage cells, read-out: IC50 of inhibiting nitric oxide production; for EC50: RAW264.7 cells, LPS 0.25 μg/mL, 24 h, read-out: EC50, Nitric oxide (LPS-induced NO production). As for the experimental part:
(§1) Inhibition of NO production in LPS-activated murine macrophages (RAW 264.7 cells) The inhibitory assay followed the methods described previously with some modifications. RAW 264.7 cells were seeded at 3 × 10^4 cells/well in a 96-well flat bottom plate and cultured in DMEM high glucose supplemented with 10% FBS, 1% penicillin–streptomycin, and 1% HEPES. The plates were initially incubated at 37 °C for 24 h under 5% CO2 atmosphere. Thereafter, LPS (0.25 μg/mL) in the absence or presence of different concentrations of kaemtakols (100, 10, 1, 0.1, 0.01, and 0.001 μg/mL) were introduced into the culture plate and then incubated further for 24 h under the same condition. Aminoguanidine hydrochloride (iNOS inhibitor) was also added as a positive control. The nitrite accumulation in the media was determined by the Griess reaction. The 75 μL of each culture supernatant was mixed with an equivalent amount of Griess reagent and the resulting mixture was incubated at room temperature for additional 10 min. Then, the absorbance at 546 nm was measured using a multimode microplate reader (ENVISION). The cytotoxicity of kaemtakols against RAW 264.7 was determined by a standard MTT assay.
(The Griess reaction detects nitrite, a stable product of nitric oxide.)

Data set [2] can be described thus: Cytotoxicity against RAW 264.7 cells (MTT assay). The data set is classed as cell-based, murine. The settings on record: mouse; for viability at 24 h, 10 µM: at 10 μM, read-out: % Cell viability At 10 μM; for viability at 24 h, 100 µM: at 100 μM, read-out: % Cell viability At 100 μM. As for the experimental part: as §1, with “The” for “Inhibition of NO production in LPS-activated murine macrophages (RAW 264.7 cells) The”
Background: Formazan colour is commonly taken as a measure of viable cells.

For orientation: EC50 means the concentration giving half of the maximal effect. A word on the IC50: it is the midpoint of a concentration-inhibition curve. For orientation: viability means the share of living cells, or the viability signal relative to a control. `C=C[C@]1(C)C=C2[C@](O)(CC1)[C@]13CO[C@@]2(O)[C@@H](OC(C)=O)[C@H]1C(C)(C)CC[C@@H]3O` [Compound 2, 1α,7α,9α-trihydroxy-6β-acetoxy-7β,20-epoxyisopimara-8(14),15-diene]: the EC50 with NF-κB in HaCaT cells was over 100 µM. Moreover, in data set [1], the half-inhibitory concentration (IC50) came to 0.69 µM and the EC50 was 0.69 µM. In data set [2], the viability at 24 h, 10 µM was 83% and the viability at 24 h, 100 µM was determined as 20.8%.

As to `C=C[C@]1(C)C=C2[C@@H](OC(C)=O)[C@@]3(O)OC[C@]4([C@@H]3C(C)(C)CC[C@@H]4O)[C@@]2(O)CC1` [Compound 3, 1α,6α,9α-trihydroxy-7β-acetoxy-6β,20-epoxyisopimara-8(14),15-diene], the EC50 is over 100 µM with NF-κB in HaCaT cells and 29.9 µM in data set [1]. Moreover, the viability at 24 h, 10 µM in data set [2] worked out at 92.5%. Moreover, the viability at 24 h, 100 µM in data set [2] was determined as 97.2%.

Take `C=CC1(C)C=C2C3(O)OCC4(C(OC(C)=O)CCC(C)(C)C4C3OC(C)=O)C2(O)CC1` (stereo not drawn) [Compound 1, 7α,9α-dihydroxy-1α,6β-diacetoxy-7β,20-epoxyisopimara-8(14),15-diene]: the half-maximal effective concentration (EC50) with NF-κB in HaCaT cells was over 100 µM. For the same molecule, in data set [1], the IC50 is 104 µM and the half-maximal effective concentration (EC50) came out at 104 µM. In data set [2], the viability at 24 h, 10 µM worked out at 95.7% and the viability at 24 h, 100 µM is 68.5%.

As for `CC(=O)OC1CCC(C)(C)C(C=O)C12COC(=O)C1=C2C2CC3C1C3(C)C2` (stereo not drawn) [Compound 4, 1α-acetoxy-13β-methyl-6,7-seco-7,20-olide-8,9-tricyclo[3.2.1.0^2,7]octane-isopimara-8-en-6-al], in the data set on NF-κB in HaCaT cells, the EC50 is over 100 µM. In data set [1], the EC50 came to 18.8 µM. Besides, in data set [2], the viability at 24 h, 10 µM worked out at 89.7% and the viability at 24 h, 100 µM was 1.55%.
